Test results from ChEMBL document CHEMBL1201862, “PubChem BioAssay data set” (2004).
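Five compound concentrations were applied to cells in 96-well plates for 48 hours; endpoints were derived by simple linear interpolation of the resulting dose-response curve. Here, GI50 denotes the concentration required for 50% inhibition of growth.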 Active and inactive are the calls of the source. Cut-off read from the data, not from the text of the source: active = GI50 up to about 1.1 µM and inactive = higher.

Legend:
Assay in all cases: inhibition of tumour cell growth, NCI panel, 48 h
SF-268 = tested on: SF-268
NCI/ADR-RES = tested on: NCI/ADR-RES
HOP-62 = tested on: HOP-62
HT-29 = tested on: HT-29
A498 = tested on: A498
SK-MEL-2 = tested on: SK-MEL-2
OVCAR-8 = tested on: OVCAR-8
OVCAR-4 = tested on: OVCAR-4
HCT-15 = tested on: HCT-15
HCT-116 = tested on: HCT-116
SK-MEL-28 = tested on: SK-MEL-28
COLO 205 = tested on: COLO 205
SF-539 = tested on: SF-539
Hs-578T = tested on: Hs-578T
SW-620 = tested on: SW-620
MOLT-4 = tested on: MOLT-4
NCI-H226 = tested on: NCI-H226
HOP-92 = tested on: HOP-92
Malme-3M = tested on: Malme-3M
786-0 = tested on: 786-0

Structure (SMILES) | GI50 (SF-268) | GI50 (NCI/ADR-RES) | GI50 (HOP-62) | GI50 (HT-29) | GI50 (A498) | GI50 (SK-MEL-2) | GI50 (OVCAR-8) | GI50 (OVCAR-4) | GI50 (HCT-15) | GI50 (HCT-116) | GI50 (SK-MEL-28) | GI50 (COLO 205) | GI50 (SF-539) | GI50 (Hs-578T) | GI50 (SW-620) | GI50 (MOLT-4) | GI50 (NCI-H226) | GI50 (HOP-92) | GI50 (Malme-3M) | GI50 (786-0)
O=C(c1ccccc1)c1sc2c(=O)c(C(=O)c3ccccc3)c(C(=O)c3ccccc3)sc2c(=O)c1C(=O)c1ccccc1 | 46.7 µM (inactive) | 24.5 µM (inactive) | 51.1 µM (inactive) | 33.3 µM (inactive) | > 100 µM (inactive) | 50.6 µM (inactive) | 35.4 µM (inactive) | > 100 µM (inactive) | 35 µM | 44.1 µM (inactive) | > 100 µM (inactive) | > 100 µM (inactive) | 23.6 µM (inactive) | 77.6 µM (inactive) | 21.8 µM (inactive) | 20.7 µM (inactive) | 82.4 µM (inactive) | 37.2 µM (inactive) | 75.7 µM (inactive) | 32.1 µM (inactive)
COc1ccc(C[C@H]2NC[C@H](OC(C)=O)[C@H]2OC(C)=O)cc1 | 0.0614 µM (active) | 0.171 µM (active) | 0.195 µM (active) | 0.183 µM (active) | 0.302 µM (active) | 0.184 µM (active) | 0.191 µM (active) | 0.104 µM (active) | 0.144 µM | 0.105 µM (active) | 0.143 µM (active) | 0.147 µM (active) | 0.441 µM (active) | 0.135 µM (active) | 0.186 µM (active) | 0.205 µM (active) | 0.172 µM (active) | 0.0417 µM (active) | 0.158 µM (active) | 0.0776 µM (active)
COC(=O)c1ccccc1CC1Cc2c(C)ccc(C)c2C1=O (stereo not given) | 29.6 µM (inactive) | 18.3 µM (inactive) | 60.1 µM (inactive) | 14.9 µM (inactive) | 25.8 µM (inactive) | 17.9 µM (inactive) | 42.1 µM (inactive) | 25.9 µM (inactive) | 24.6 µM | 16.5 µM (inactive) | 48 µM (inactive) | 19.1 µM (inactive) | 51.2 µM (inactive) | 33.3 µM (inactive) | 35.6 µM (inactive) | 19.6 µM (inactive) | 38.9 µM (inactive) | 17.2 µM (inactive) | 22.4 µM (inactive) | 36.3 µM (inactive)
COc1ccc2c(-c3cc4ccccc4o3)cc(=O)oc2c1 | 25.3 µM (inactive) | 24.7 µM (inactive) | 13.3 µM (inactive) | > 78.2 µM (inactive) | 31.3 µM (inactive) | 66.5 µM (inactive) | 29.9 µM (inactive) | 22.8 µM (inactive) | > 100 µM | 42.3 µM (inactive) | 53.7 µM (inactive) | > 100 µM (inactive) | 16.7 µM (inactive) | 11.4 µM (inactive) | > 100 µM (inactive) | > 100 µM (inactive) | 58.5 µM (inactive) | 24.3 µM (inactive) | 71.1 µM (inactive) | 25.8 µM (inactive)
c1ccc2c(c1)c1c3c(c4c(n32)=NCCN4)CCC1 | 31.6 µM (inactive) | 27.9 µM (inactive) | 36.1 µM (inactive) | 20.8 µM (inactive) | 28 µM (inactive) | 23.3 µM (inactive) | 39.6 µM (inactive) | 42.5 µM (inactive) | 15.2 µM | 30.5 µM (inactive) | 55.3 µM (inactive) | 28.1 µM (inactive) | 46.1 µM (inactive) | 26.5 µM (inactive) | 28.5 µM (inactive) | 21.3 µM (inactive) | 19.2 µM (inactive) | 25.6 µM (inactive) | 31.6 µM (inactive) | 28.1 µM (inactive)
Cc1cn(C2CCN(CC3COC(C)(C)O3)O2)c(=O)[nH]c1=O (stereo not given) | > 100 µM (inactive) | > 100 µM (inactive) | > 100 µM (inactive) | > 100 µM (inactive) | > 100 µM (inactive) | > 100 µM (inactive) | > 100 µM (inactive) | > 100 µM (inactive) | > 100 µM | > 100 µM (inactive) | > 100 µM (inactive) | > 100 µM (inactive) | > 100 µM (inactive) | > 100 µM (inactive) | > 100 µM (inactive) | > 100 µM (inactive) | > 100 µM (inactive) | > 100 µM (inactive) | > 100 µM (inactive) | > 100 µM (inactive)
COc1ccc(NC2C(=O)C3(C)CCC2C3(C)C)cc1 (stereo not given) | > 100 µM (inactive) | > 100 µM (inactive) | > 100 µM (inactive) | 40.4 µM (inactive) | > 100 µM (inactive) | > 100 µM (inactive) | > 100 µM (inactive) | 72.9 µM (inactive) | > 100 µM | > 100 µM (inactive) | > 100 µM (inactive) | > 100 µM (inactive) | > 100 µM (inactive) | > 100 µM (inactive) | > 100 µM (inactive) | 67.8 µM (inactive) | 67.8 µM (inactive) | 33.4 µM (inactive) | > 100 µM (inactive) | > 100 µM (inactive)
C[n+]1c2ccccc2n2c3ccccc3c(NCCCn3ccnc3)c(C#N)c21 | 1.44 µM (inactive) | > 42 µM (inactive) | 2.03 µM (inactive) | 3.31 µM (inactive) | 13.4 µM (inactive) | 1.62 µM (inactive) | 1.55 µM (inactive) | 1.61 µM (inactive) | 5.66 µM | 1.08 µM (active) | 3.48 µM (inactive) | 1.23 µM (inactive) | 3.94 µM (inactive) | 1.64 µM (inactive) | 1.49 µM (inactive) | 0.533 µM (active) | 2.85 µM (inactive) | 3.15 µM (inactive) | 1.9 µM (inactive) | 2.04 µM (inactive)
CC1=NN(c2nc(N)nc(/C(C#N)=C\c3ccc([N+](=O)[O-])s3)n2)C(C)(C)C1 | 0.408 µM (active) | 1.18 µM (inactive) | 0.316 µM (active) | 0.265 µM (active) | 7.78 µM (inactive) | 0.375 µM (active) | 0.113 µM (active) | 2.55 µM (inactive) | 0.108 µM | 0.244 µM (active) | 0.383 µM (active) | 0.339 µM (active) | 0.169 µM (active) | 0.783 µM (active) | 0.0736 µM (active) | 0.138 µM (active) | 2.39 µM (inactive) | 0.302 µM (active) | 0.764 µM (active) | 0.16 µM (active)
CC(=O)OC1C[C@@H](C)C2(CC(c3ccoc3)OC2=O)C2CCC(O)C3(CO3)C12CO (stereo not given in full) | > 100 µM (inactive) | > 100 µM (inactive) | > 100 µM (inactive) | > 100 µM (inactive) | > 100 µM (inactive) | > 100 µM (inactive) | > 100 µM (inactive) | > 100 µM (inactive) | > 100 µM | > 100 µM (inactive) | > 100 µM (inactive) | > 100 µM (inactive) | > 100 µM (inactive) | > 100 µM (inactive) | > 100 µM (inactive) | > 100 µM (inactive) | > 100 µM (inactive) | > 100 µM (inactive) | > 100 µM (inactive) | > 100 µM (inactive)
COC(=O)c1ccccc1Nc1ccccc1C(=O)OC | 54.2 µM (inactive) | > 100 µM (inactive) | 59.6 µM (inactive) | 91.2 µM (inactive) | 52.8 µM (inactive) | > 100 µM (inactive) | 89.7 µM (inactive) | 48.9 µM (inactive) | > 100 µM | > 100 µM (inactive) | > 100 µM (inactive) | > 100 µM (inactive) | 83 µM (inactive) | 20.8 µM (inactive) | > 100 µM (inactive) | > 100 µM (inactive) | 23.7 µM (inactive) | 23.4 µM (inactive) | 37.9 µM (inactive) | 53.5 µM (inactive)
O=C(Nn1cc(F)c(=O)[nH]c1=O)C12CC3CC(CC(C3)C1)C2 | 29.2 µM (inactive) | 24.2 µM (inactive) | 12 µM (inactive) | 8.17 µM (inactive) | 7.24 µM (inactive) | 23.2 µM (inactive) | 22.6 µM (inactive) | 10.2 µM (inactive) | 6.56 µM | 5.77 µM (inactive) | 12.9 µM (inactive) | 9.75 µM (inactive) | 2.21 µM (inactive) | 25.4 µM (inactive) | 15.5 µM (inactive) | 16 µM (inactive) | 38.9 µM (inactive) | 8.69 µM (inactive) | 6.73 µM (inactive) | 10.7 µM (inactive)
Nc1ccc2c(=S)c3ccccc3[nH]c2c1 | 65.9 µM (inactive) | 43.3 µM (inactive) | 24.3 µM (inactive) | 19.3 µM (inactive) | 61.7 µM (inactive) | 51.9 µM (inactive) | 52.5 µM (inactive) | 62.8 µM (inactive) | 24.2 µM | 24.3 µM (inactive) | 43.1 µM (inactive) | 24.5 µM (inactive) | 33.2 µM (inactive) | 55.6 µM (inactive) | 32.5 µM (inactive) | 18.7 µM (inactive) | 24.1 µM (inactive) | 26.2 µM (inactive) | 40.3 µM (inactive) | 38.5 µM (inactive)
COc1ccc(NC(C)c2ccncc2)cc1 (stereo not given) | > 100 µM (inactive) | > 100 µM (inactive) | > 100 µM (inactive) | > 100 µM (inactive) | > 100 µM (inactive) | > 100 µM (inactive) | > 100 µM (inactive) | > 100 µM (inactive) | > 100 µM | > 100 µM (inactive) | > 100 µM (inactive) | > 100 µM (inactive) | > 100 µM (inactive) | > 100 µM (inactive) | > 100 µM (inactive) | > 100 µM (inactive) | > 100 µM (inactive) | > 100 µM (inactive) | > 100 µM (inactive) | > 100 µM (inactive)
